Measurements: patent US8163756B2 (priority 2004, dated 2012)
pIC50: −log10 of the molar value.

What follows are compounds tested against phosphorylated p-38-alpha kinase (Homo sapiens, UniProt Q16539) (assay: P-38 alpha kinase assay P1 (coupled spectrophotometric, 2 h pre-incubation)). Details: method P1 (2 h pre-incubation); read-out: P-38 Data.
Assay type: biochemical

phosphorylated p-38-alpha kinase, sequence (Q16539 1-360 isoform Q16539-2): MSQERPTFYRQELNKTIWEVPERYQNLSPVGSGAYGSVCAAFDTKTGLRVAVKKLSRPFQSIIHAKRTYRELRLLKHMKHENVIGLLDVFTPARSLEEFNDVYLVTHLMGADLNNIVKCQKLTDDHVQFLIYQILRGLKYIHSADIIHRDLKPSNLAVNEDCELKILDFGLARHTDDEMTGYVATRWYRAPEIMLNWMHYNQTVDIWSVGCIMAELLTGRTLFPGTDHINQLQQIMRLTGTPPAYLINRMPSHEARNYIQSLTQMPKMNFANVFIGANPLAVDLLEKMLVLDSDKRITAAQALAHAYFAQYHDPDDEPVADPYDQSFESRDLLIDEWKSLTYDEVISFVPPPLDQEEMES

**Q.** CC(C)(C)c1cc(NC(=O)Nc2ccc(Cl)cc2)n(-c2cccc(CO)c2)n1 [Example 224] was tested. Which pIC50 did it give?
**A.** The pIC50 was 7.42.

**Q.** O=C(O)Cc1cccc(-n2nc(-c3nccs3)cc2NC(=O)Nc2cccc(Cl)c2Cl)c1 [Example 359, 2-(3-(5-(3-(2,3-dichlorophenyl)ureido)-3-(thiazol-2-yl)-1H-pyrazol-1-yl)phenyl)acetic acid] was tested. Which pIC50 did it give?
**A.** The pIC50 was 7.15.

**Q.** With O=C(O)Cc1cccc(-n2nc(-c3ccccc3F)cc2NC(=O)N[C@H]2CCc3ccccc32)c1 [Example 360, 2-(3-(5-(3-((S)-2,3-dihydro-1H-inden-1-yl)ureido)-3-(2-fluorophenyl)-1H-pyrazol-1-yl)phenyl)acetic acid] as the compound, how does the pIC50 read?
**A.** The pIC50 was 7.70.

**Q.** O=C(O)Cc1cccc(-n2nc(-c3cccs3)cc2NC(=O)N[C@H]2CCc3ccccc32)c1 [Example 361, 2-(3-(5-(3-((S)-2,3-dihydro-1H-inden-1-yl)ureido)-3-(thiophen-2-yl)-1H-pyrazol-1-yl)phenyl)acetic acid] was tested. Which pIC50 did it give?
**A.** The pIC50 was 7.52.

**Q.** O=C(O)Cc1cccc(-n2nc(-c3ccccc3F)cc2NC(=O)Nc2ccc(F)c(F)c2F)c1 [Example 362, 2-(3-(3-(2-fluorophenyl)-5-(3-(2,3,4-trifluorophenyl)-ureido)-1H-pyrazol-1-yl)phenyl)acetic acid] was tested. Which pIC50 did it give?
**A.** The pIC50 was 7.42.

**Q.** How did the pIC50 turn out when O=C(O)Cc1cccc(-n2nc(-c3ccccc3F)cc2NC(=O)Nc2cccc3ccccc23)c1 [Example 363, 2-(3-(3-(2-Fluorophenyl)-5-(3-(naphthalen-1-yl)ureido)-1H-pyrazol-1-yl)phenyl)acetic acid] was run?
**A.** Its pIC50 is 7.89.

**Q.** How did the pIC50 turn out when O=C(O)Cc1cccc(-n2nc(-c3cccs3)cc2NC(=O)Nc2cccc3ccccc23)c1 [Example 364, 2-(3-(5-(3-(naphthalen-1-yl)ureido)-3-(thiophen-2-yl)-1H-pyrazol-1-yl)phenyl)acetic acid] was run?
**A.** Its pIC50 is 7.89.

**Q.** O=C(O)Cc1cccc(-n2nc(-c3cccs3)cc2NC(=O)Nc2ccc(F)c(F)c2F)c1 [Example 365, 2-(3-(3-(thiophen-2-yl)-5-(3-(2,3,4-trifluorophenyl)-ureido)-1H-pyrazol-1-yl)phenyl)acetic acid] was tested. Which pIC50 did it give?
**A.** Its pIC50 is 7.15.

**Q.** O=C(O)Cc1ccc(-n2nc(-c3ccccc3F)cc2NC(=O)Nc2ccc(F)c(F)c2F)cc1 [Example 388, 2-(4-(3-(2-fluorophenyl)-5-(3-(2,3,4-trifluorophenyl)ureido)-1H-pyrazol-1-yl)phenyl)acetic acid] was tested. Which pIC50 did it give?
**A.** The pIC50 was 7.04.

**Q.** With O=C(O)Cc1ccc(-n2nc(-c3cccs3)cc2NC(=O)N[C@H]2CCc3ccccc32)cc1 [Example 389, 2-(4-(5-(3-((S)-2,3-dihydro-1H-inden-1-yl)ureido)-3-(thiophen-2-yl)-1H-pyrazol-1-yl)phenyl)acetic acid] as the compound, how does the pIC50 read?
**A.** Its pIC50 is 7.89.

**Q.** How did the pIC50 turn out when CNC(=O)Cc1cccc(-n2nc(C(C)(C)C)cc2NC(=O)Nc2cccc(F)c2F)c1 [Example 401, 1-(3-t-butyl-1-(3-(2-(methylamino)-2-oxoethyl)phenyl)-1H-pyrazol-5-yl)-3-(2,3-difluorophenyl)urea] was run?
**A.** The pIC50 was 7.20.

**Q.** CNC(=O)Cc1cccc(-n2nc(C(C)(C)C)cc2NC(=O)Nc2ccc(F)c(F)c2F)c1 [Example 402, 1-(3-t-butyl-1-(3-(2-(methylamino)-2-oxoethyl)phenyl)-1H-pyrazol-5-yl)-3-(2,3,4-trifluorophenyl)urea] was tested. Which pIC50 did it give?
**A.** The pIC50 was 7.59.

**Q.** CC(C)(C)c1cc(NC(=O)Nc2cccc(Cl)c2Cl)n(-c2cccc(CC(=O)N3CCC[C@@H]3CO)c2)n1 [Example 407, 1-(3-t-butyl-1-(3-(2-((R)-2-(hydroxymethyl)pyrrolidin-1-yl)-2-oxoethyl)phenyl)-1H-pyrazol-5-yl)-3-(2,3-dichlorophenyl)urea] was tested. Which pIC50 did it give?
**A.** The pIC50 was 7.35.

**Q.** With CC(C)(C)c1cc(NC(=O)Nc2cccc(Cl)c2Cl)n(-c2cccc(CC(=O)N3CCC[C@H]3CO)c2)n1 [Example 408, 1-(3-t-butyl-1-(3-(2-((S)-2-(hydroxymethyl)pyrrolidin-1-yl)-2-oxoethyl)phenyl)-1H-pyrazol-5-yl)-3-(2,3-dichlorophenyl)urea] as the compound, how does the pIC50 read?
**A.** Its pIC50 is 7.34.

The compounds below were run against B-Raf(V599E) kinase (Homo sapiens, UniProt P15056, V600E) (assay: B-Raf(V599E) kinase assay B1 (construct 1, MEK1 substrate, coupled spectrophotometric)). Details: not given.
B-Raf(V599E) kinase, sequence (P15056 with tags, fused parts or gaps V600E): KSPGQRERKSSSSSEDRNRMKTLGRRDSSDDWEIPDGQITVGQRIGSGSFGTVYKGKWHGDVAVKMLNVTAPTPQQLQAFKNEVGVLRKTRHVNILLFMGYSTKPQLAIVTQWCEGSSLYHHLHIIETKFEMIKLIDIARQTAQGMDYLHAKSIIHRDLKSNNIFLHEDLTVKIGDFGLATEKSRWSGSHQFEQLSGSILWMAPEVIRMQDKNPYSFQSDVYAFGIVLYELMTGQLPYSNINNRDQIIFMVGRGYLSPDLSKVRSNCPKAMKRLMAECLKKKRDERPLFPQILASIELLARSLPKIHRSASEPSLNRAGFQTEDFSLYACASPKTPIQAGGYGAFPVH
Assay type: biochemical
Protocol: The test compounds were incubated with the reaction mixtureat 30° C. for 2 h. […] The reaction rate was calculated using the […] time frame. […] IC50 values were calculated from a series of percent inhibition values determined at a range of inhibitor concentrations using software routines as implemented in the GraphPad Prism software package.

**Q.** How did the pIC50 turn out when CC(C)(C)c1cc(NC(=O)Nc2ccc(F)cc2F)n(-c2ccc3[nH]c(=O)ccc3c2)n1 [Example 332, 1-(3-t-butyl-1-(2-oxo-1,2-dihydroquinolin-6-yl)-1H-pyrazol-5-yl)-3-(2,4-difluorophenyl)urea] was run?
**A.** The pIC50 was 8.36.

**Q.** How did the pIC50 turn out when CC(C)(C)c1cc(NC(=O)Nc2cccc(F)c2)n(-c2ccc3c(c2)CCNCC3)n1 [Example 335, 1-(3-t-butyl-1-(2,3,4,5-tetrahydro-1H-benzo[d]azepin-7-yl)-1 H-pyrazol-5-yl)-3-(3-fluorophenyl)urea] was run?
**A.** Its pIC50 is 6.98.

**Q.** How did the pIC50 turn out when CC(C)(C)c1cc(NC(=O)Nc2ccc(F)cc2F)n(-c2cccc(CC(=O)O)c2)n1 [Example 369, 2-(3-(3-t-butyl-5-(3-(2,4-difluorophenyl)-ureido)-1H-pyrazol-1-yl)phenyl)acetic acid] was run?
**A.** The pIC50 was 7.82.

**Q.** With CC(C)(C)c1cc(NC(=O)Nc2cc(F)c(F)cc2F)n(-c2cccc(CC(=O)O)c2)n1 [Example 370, 2-(3-(3-t-butyl-5-(3-(2,4,5-trifluorophenyl)-ureido)-1H-pyrazol-1-yl)phenyl)acetic acid] as the compound, how does the pIC50 read?
**A.** The pIC50 was 8.10.

**Q.** With CC(C)(C)c1cc(NC(=O)Nc2ccccc2F)n(-c2cccc(CC(=O)O)c2)n1 [Example 371, 2-(3-(3-t-butyl-5-(3-(2-fluorophenyl)-ureido)-1H-pyrazol-1-yl)phenyl)acetic acid] as the compound, how does the pIC50 read?
**A.** The pIC50 was 8.00.

**Q.** How did the pIC50 turn out when CC(C)(C)c1cc(NC(=O)Nc2ccc3c(c2)OCO3)n(-c2cccc(CC(=O)O)c2)n1 [Example 372, 2-(3-{5-[3-(benzo[1,3]dioxol-5-yl)ureido]-3-t-butyl-1H-pyrazol-1-yl}phenyl)acetic acid] was run?
**A.** Its pIC50 is 7.57.

**Q.** How did the pIC50 turn out when CC(C)(C)c1cc(NC(=O)NC2CCCCC2)n(-c2cccc(CC(N)=O)c2)n1 [Example 391, 1-{1-[3-(2-amino-2-oxoethyl)phenyl]-3-t-butyl-1H-pyrazol-5-yl}-3-cyclohexylurea] was run?
**A.** The pIC50 was 7.43.

**Q.** C[C@H](NC(=O)Nc1cc(C(C)(C)C)nn1-c1cccc(CC(N)=O)c1)c1ccccc1 [Example 392, 1-{1-[3-(2-amino-2-oxoethyl)phenyl]-3-t-butyl-1H-pyrazol-5-yl}-3-((S)-1-phenylethyl)urea] was tested. Which pIC50 did it give?
**A.** The pIC50 was 6.66.

**Q.** How did the pIC50 turn out when CC(C)(C)c1cc(NC(=O)Nc2ccccc2F)n(-c2cccc(CC(N)=O)c2)n1 [Example 393, 1-{1-[3-(2-amino-2-oxoethyl)phenyl]-3-t-butyl-1H-pyrazol-5-yl}-3-(2-fluorophenyl)urea] was run?
**A.** The pIC50 was 7.70.

**Q.** CC(C)(C)c1cc(NC(=O)Nc2ccc3c(c2)OCO3)n(-c2cccc(CC(N)=O)c2)n1 [Example 395, 1-{1-[3-(2-amino-2-oxoethyl)phenyl]-3-t-butyl-1H-pyrazol-5-yl}-3-(benzo[d][1,3]dioxol-5-yl)urea] was tested. Which pIC50 did it give?
**A.** The pIC50 was 7.30.

**Q.** With CC(C)(C)c1cc(NC(=O)Nc2cccc(Oc3ccccc3)c2)n(-c2cccc(CC(N)=O)c2)n1 [Example 433, 1-(1-(3-(2-amino-2-oxoethyl)phenyl)-3-t-butyl-1H-pyrazol-5-yl)-3-(3-phenoxyphenyl)urea] as the compound, how does the pIC50 read?
**A.** The pIC50 was 8.29.

**Q.** CC(C)(C)c1cc(NC(=O)Nc2ccc(F)c(F)c2)n(-c2cccc(CC(N)=O)c2)n1 [Example 436, 1-(1-(3-(2-amino-2-oxoethyl)phenyl)-3-t-butyl-1H-pyrazol-5-yl)-3-(3,4-difluorophenyl)urea] was tested. Which pIC50 did it give?
**A.** Its pIC50 is 7.74.

**Q.** CC(C)NC(=O)Cc1cccc(-n2nc(C(C)(C)C)cc2NC(=O)Nc2cccc(Cl)c2Cl)c1 [Example 441, 1-(3-t-butyl-1-(3-(2-(isopropylamino)-2-oxoethyl)phenyl)-1H-pyrazol-5-yl)-3-(2,3-dichlorophenyl)urea] was tested. Which pIC50 did it give?
**A.** The pIC50 was 8.19.

**Q.** CC(C)(C)c1cc(NC(=O)Nc2cccc(Cl)c2Cl)n(-c2cccc(CC(=O)N3CC[C@@H](O)C3)c2)n1 [Example 443, 1-(3-t-butyl-1-(3-(2-((R)-3-hydroxypyrrolidin-1-yl)-2-oxoethyl)phenyl)-1H-pyrazol-5-yl)-3-(2,3-dichlorophenyl)urea] was tested. Which pIC50 did it give?
**A.** The pIC50 was 8.05.

**Q.** CC(C)(C)c1cc(NC(=O)Nc2cccc(Cl)c2Cl)n(-c2ccc(CC(N)=O)cc2)n1 [Example 492, 1-(1-(4-(2-amino-2-oxoethyl)phenyl)-3-t-butyl-1H-pyrazol-5-yl)-3-(2,3-dichlorophenyl)urea] was tested. Which pIC50 did it give?
**A.** The pIC50 was 8.19.

Same assay, conditions: Method B1; read-out: B-Raf Data

**Q.** O=C(O)Cc1cccc(-n2nc(-c3cccs3)cc2NC(=O)Nc2cccc(Cl)c2Cl)c1 [Example 366, 2-(3-(5-(3-(2,3-dichlorophenyl)-ureido)-3-(thiophen-2-yl)-1H-pyrazol-1-yl)phenyl)acetic acid] was tested. Which pIC50 did it give?
**A.** Its pIC50 is 6.80.

**Q.** With O=C(O)Cc1cccc(-n2nc(C3CCCC3)cc2NC(=O)Nc2cccc(Cl)c2Cl)c1 [Example 368, 2-(3-(3-cyclopentyl-5-(3-(2,3-dichlorophenyl)-ureido)-1H-pyrazol-1-yl)phenyl)acetic acid] as the compound, how does the pIC50 read?
**A.** Its pIC50 is 8.21.

**Q.** How did the pIC50 turn out when CC(C)(C)c1cc(NC(=O)Nc2cccc(F)c2F)n(-c2cccc(CC(N)=O)c2)n1 [Example 394, 1-{1-[3-(2-amino-2-oxoethyl)phenyl]-3-t-butyl-1H-pyrazol-5-yl}-3-(2,3-difluorophenyl)urea] was run?
**A.** The pIC50 was 8.06.

**Q.** With CC(C)(C)c1cc(NC(=O)Nc2cc(F)c(F)cc2F)n(-c2cccc(CC(N)=O)c2)n1 [Example 434, 1-(1-(3-(2-amino-2-oxoethyl)phenyl)-3-t-butyl-1H-pyrazol-5-yl)-3-(2,4,5-trifluorophenyl)urea] as the compound, how does the pIC50 read?
**A.** Its pIC50 is 8.17.

**Q.** With CC(C)(C)c1cc(NC(=O)Nc2ccc(F)c(F)c2F)n(-c2cccc(CC(N)=O)c2)n1 [Example 435, 1-(1-(3-(2-amino-2-oxoethyl)phenyl)-3-t-butyl-1H-pyrazol 5-yl)-3-(2,3,4-trifluorophenyl)urea] as the compound, how does the pIC50 read?
**A.** Its pIC50 is 8.14.

**Q.** CC(C)(C)c1cc(NC(=O)Nc2cccc(-c3cnccn3)c2)n(-c2cccc(CC(N)=O)c2)n1 [Example 437, 1-(1-(3-(2-amino-2-oxoethyl)phenyl)-3-t-butyl-1H-pyrazol-5-yl)-3-(3-(pyrazin-2-yl)phenyl)urea] was tested. Which pIC50 did it give?
**A.** Its pIC50 is 6.55.

**Q.** How did the pIC50 turn out when NC(=O)Cc1cccc(-n2nc(-c3cccs3)cc2NC(=O)Nc2cccc(Cl)c2Cl)c1 [Example 445, 1-(1-(3-(2-amino-2-oxoethyl)phenyl)-3-(thiophen-2-yl)-1H-pyrazol-5-yl)-3-(2,3-dichlorophenyl)urea] was run?
**A.** Its pIC50 is 6.08.
